From the NIST ThermoML archive (doi:10.1016/j.jct.2010.09.008)

How the values were obtained:
[1] = xn = mol fraction of the nth substance listed; settings: 101.3 kPa, Liquid, Vibrating tube method
[2] = relative permittivity at zero frequency (dimensionless); xn = mol fraction of the nth substance listed; settings: 101.3 kPa, Liquid, AC Method
[3] = 101.33 kPa, Liquid, Vibrating tube method
[4] = relative permittivity at zero frequency (dimensionless); settings: 101.33 kPa, Liquid, AC method

COCCOCCOCCOC [2,5,8,11-tetraoxadodecane] + CCCCCCC
Settings	mass density [kg/m3]	relative permittivity at zero frequency
[1], 288.15 K, x2 = 0.0478	977.7	–
[1], 288.15 K, x2 = 0.1018	963.5	–
[1], 288.15 K, x2 = 0.2008	936.93	–
[1], 288.15 K, x2 = 0.3046	908.26	–
[1], 288.15 K, x2 = 0.4046	879.55	–
[1], 288.15 K, x2 = 0.502	850.68	–
[1], 288.15 K, x2 = 0.5988	821.04	–
[1], 288.15 K, x2 = 0.6937	791	–
[1], 288.15 K, x2 = 0.7981	756.91	–
[1], 288.15 K, x2 = 0.8992	722.88	–
[1], 288.15 K, x2 = 0.9471	706.43	–
[1], 298.15 K, x2 = 0.0478	968.24	–
[1], 298.15 K, x2 = 0.1018	954.08	–
[1], 298.15 K, x2 = 0.2008	927.56	–
[1], 298.15 K, x2 = 0.3046	898.85	–
[1], 298.15 K, x2 = 0.4046	870.31	–
[1], 298.15 K, x2 = 0.502	841.51	–
[1], 298.15 K, x2 = 0.5988	811.96	–
[1], 298.15 K, x2 = 0.6937	782.03	–
[1], 298.15 K, x2 = 0.7981	748.1	–
[1], 298.15 K, x2 = 0.8992	714.23	–
[1], 298.15 K, x2 = 0.9471	697.88	–
[1], 308.15 K, x2 = 0.0478	958.76	–
[1], 308.15 K, x2 = 0.1018	944.65	–
[1], 308.15 K, x2 = 0.2008	918.17	–
[1], 308.15 K, x2 = 0.3046	889.51	–
[1], 308.15 K, x2 = 0.4046	861.04	–
[1], 308.15 K, x2 = 0.502	832.28	–
[1], 308.15 K, x2 = 0.5988	802.84	–
[1], 308.15 K, x2 = 0.6937	773	–
[1], 308.15 K, x2 = 0.7981	739.22	–
[1], 308.15 K, x2 = 0.8992	705.5	–
[1], 308.15 K, x2 = 0.9471	689.25	–
[2], 288.15 K, x2 = 0.0502	–	7.53
[2], 288.15 K, x2 = 0.0996	–	7.18
[2], 288.15 K, x2 = 0.2037	–	6.44
[2], 288.15 K, x2 = 0.3128	–	5.7
[2], 288.15 K, x2 = 0.3994	–	5.13
[2], 288.15 K, x2 = 0.5007	–	4.49
[2], 288.15 K, x2 = 0.6027	–	3.88
[2], 288.15 K, x2 = 0.7014	–	3.32
[2], 288.15 K, x2 = 0.8007	–	2.81
[2], 288.15 K, x2 = 0.8993	–	2.35
[2], 288.15 K, x2 = 0.9502	–	2.14
[2], 298.15 K, x2 = 0.0511	–	7.28
[2], 298.15 K, x2 = 0.0992	–	6.94
[2], 298.15 K, x2 = 0.2012	–	6.26
[2], 298.15 K, x2 = 0.3025	–	5.59
[2], 298.15 K, x2 = 0.4095	–	4.91
[2], 298.15 K, x2 = 0.5014	–	4.36
[2], 298.15 K, x2 = 0.6006	–	3.79
[2], 298.15 K, x2 = 0.6989	–	3.26
[2], 298.15 K, x2 = 0.7898	–	2.81
[2], 298.15 K, x2 = 0.902	–	2.31
[2], 298.15 K, x2 = 0.9501	–	2.11
[2], 308.15 K, x2 = 0.0504	–	7.04
[2], 308.15 K, x2 = 0.1008	–	6.71
[2], 308.15 K, x2 = 0.2074	–	6.01
[2], 308.15 K, x2 = 0.3092	–	5.37
[2], 308.15 K, x2 = 0.4042	–	4.8
[2], 308.15 K, x2 = 0.5048	–	4.22
[2], 308.15 K, x2 = 0.6022	–	3.69
[2], 308.15 K, x2 = 0.7071	–	3.15
[2], 308.15 K, x2 = 0.801	–	2.7
[2], 308.15 K, x2 = 0.9016	–	2.28
[2], 308.15 K, x2 = 0.9514	–	2.09

COCCOCCOC [2,5,8-trioxanonane]
Settings	mass density, 288.15 K [kg/m3]	mass density, 298.15 K [kg/m3]	mass density, 308.15 K [kg/m3]	relative permittivity at zero frequency, 288.15 K	relative permittivity at zero frequency, 298.15 K	relative permittivity at zero frequency, 308.15 K
[3]	949.34	939.35	929.36	–	–	–
[4]	–	–	–	7.69	7.4	7.12
